Measurements reported in the supplement of paper PMC10307832.

Experiments:
Assay in all cases: relative viability (nuclei count vs DMSO), 5 days (fraction); higher = more cells survive
CUDC-101 + Luminespib = compound: C#Cc1cccc(Nc2ncnc3cc(OC)c(OCCCCCCC(=O)NO)cc23)c1 [CUDC-101] + CCNC(=O)c1noc(-c2cc(C(C)C)c(O)cc2O)c1-c1ccc(CN2CCOCC2)cc1 [Luminespib] (partner 0.01 µM)
In short: (§1)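 Relative viability divides the nuclei count in treated wells by that in vehicle wells. Lung cancer cell lines were seeded in 1536-well plates, dosed by pin tool the next day, and fixed and stained after 5 days in one step with final 0.05% Triton X-100, 1% formaldehyde and 1 ug/ml Hoechst. Dosing was a single drug or a fixed anchor-drug dose plus five library-drug doses (not always all listed) in √10 steps, and values are medians of duplicate plates imaged at 4×.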

[1] = compound: C1=CC=C2C(=C1)N=C(S2)C(C#N)C3=NC(=NC=C3)NCCC4=CN=CC=C4 + N=C(N)NC(=N)NCCc1ccccc1 [Phenformin] (partner 250 µM)
In short: as §1

NVP-TAE684 + Crizotinib = compound: COc1cc(N2CCC(N3CCN(C)CC3)CC2)ccc1Nc1ncc(Cl)c(Nc2ccccc2S(=O)(=O)C(C)C)n1 [NVP-TAE684] + C[C@@H](Oc1cc(-c2cnn(C3CCNCC3)c2)cnc1N)c1c(Cl)ccc(F)c1Cl [Crizotinib] (partner 1 µM)
In short: as §1

NVP-TAE684 + Tozasertib = compound: COc1cc(N2CCC(N3CCN(C)CC3)CC2)ccc1Nc1ncc(Cl)c(Nc2ccccc2S(=O)(=O)C(C)C)n1 [NVP-TAE684] + Cc1cc(Nc2cc(N3CCN(C)CC3)nc(Sc3ccc(NC(=O)C4CC4)cc3)n2)n[nH]1 [Tozasertib] (partner 0.1 µM)
In short: as §1

Cell Line | relative viability (CUDC-101 + Luminespib; first compound 0.01 µM) | relative viability (CUDC-101 + Luminespib; first compound 0.03162 µM) | relative viability (CUDC-101 + Luminespib; first compound 0.1 µM) | relative viability (CUDC-101 + Luminespib; first compound 0.3162 µM) | relative viability (CUDC-101 + Luminespib; first compound 1 µM) | relative viability ([1]; first compound 0.005 µM) | relative viability ([1]; first compound 0.01581 µM) | relative viability ([1]; first compound 0.05 µM) | relative viability ([1]; first compound 0.1581 µM) | relative viability ([1]; first compound 0.5 µM) | relative viability (NVP-TAE684 + Crizotinib; first compound 0.2 µM) | relative viability (NVP-TAE684 + Crizotinib; first compound 0.6325 µM) | relative viability (NVP-TAE684 + Crizotinib; first compound 2 µM) | relative viability (NVP-TAE684 + Tozasertib; first compound 0.2 µM) | relative viability (NVP-TAE684 + Tozasertib; first compound 0.6325 µM) | relative viability (NVP-TAE684 + Tozasertib; first compound 2 µM)
NCI-H520 | 0.241 | 0.221 | 0.208 | 0.204 | 0.245 | 0.494 | 0.472 | 0.556 | 0.636 | 0.532 | 0.668 | 0.651 | 0.348 | 0.408 | 0.466 | 0.358
NCI-H1755 | 0.602 | 0.302 | 0.496 | 0.576 | 0.394 | 0.617 | 0.641 | 0.621 | 0.695 | 0.607 | 0.991 | 0.893 | 0.681 | 0.601 | 0.585 | 0.473
NCI-H358 | 0.263 | 0.407 | 0.225 | 0.659 | 0.448 | 0.216 | 0.329 | 0.334 | 0.404 | 0.258 | 0.441 | 0.347 | 0.081 | 0.0952 | 0.0896 | 0.0684
NCI-H1650 | 0.25 | 0.221 | 0.189 | 0.166 | 0.193 | 0.375 | 0.335 | 0.523 | 0.402 | 0.377 | 0.899 | 0.89 | 1 | 0.317 | 0.385 | 0.165
NCI-H2228 | 0.114 | 0.164 | 0.169 | 0.19 | 0.188 | 0.19 | 0.281 | 0.299 | 0.316 | 0.314 | 0.476 | 0.42 | 0.139 | 0.196 | 0.129 | 0.136
NCI-H2347 | 0.617 | 0.458 | 0.47 | 0.415 | 0.331 | 0.417 | 0.334 | 0.322 | 0.611 | 0.455 | 0.683 | 0.619 | 0.617 | 0.59 | 0.487 | 0.359
HCC-15 | 0.169 | 0.279 | 0.299 | 0.559 | 0.596 | 0.427 | 0.437 | 0.455 | 0.579 | 0.401 | 0.806 | 0.792 | 0.319 | 0.368 | 0.389 | 0.176
NCI-H23 | 0.197 | 0.204 | 0.209 | 0.207 | 0.197 | 0.638 | 0.762 | 0.804 | 0.934 | 0.886 | 0.463 | 0.451 | 0.254 | 0.402 | 0.367 | 0.241
LC-2-ad | 1.04 | 0.953 | 1.15 | 0.974 | 0.707 | 0.575 | 0.507 | 0.541 | 0.598 | 0.611 | 0.419 | 0.433 | 0.315 | 0.448 | 0.377 | 0.286
LCLC-97TM1 | 0.849 | 0.857 | 0.771 | 0.765 | 0.502 | 0.429 | 0.417 | 0.403 | 0.431 | 0.407 | 0.216 | 0.336 | 0.0982 | 0.184 | 0.224 | 0.0618
HOP-62 | 0.931 | 0.875 | 0.902 | 0.859 | 0.794 | 0.4 | 0.764 | 0.633 | 0.788 | 0.523 | – | 0.997 | 0.823 | 0.397 | 0.386 | 0.294
NCI-H2085 | 0.479 | 0.446 | 0.437 | 0.45 | 0.385 | 0.639 | 0.702 | 0.595 | 0.819 | 0.799 | 0.788 | 0.872 | 0.55 | 0.803 | 0.781 | 0.379
NCI-H2087 | 0.174 | 0.186 | 0.176 | 0.177 | 0.198 | 0.472 | 0.495 | 0.471 | 0.623 | 0.426 | 0.942 | 1.14 | 0.642 | 0.22 | 0.262 | 0.166
COR-L 105 | 0.768 | 0.701 | 0.845 | 0.831 | 0.476 | 0.322 | 0.487 | 0.582 | 0.525 | 0.411 | 0.677 | 0.461 | 0.388 | 0.364 | 0.315 | 0.23
CAL-12T | 0.525 | 0.337 | 0.337 | 0.556 | 0.36 | 0.539 | 0.433 | 0.584 | 0.619 | 0.485 | 0.63 | 0.444 | 0.282 | 0.278 | 0.315 | 0.117
A-427 | 0.919 | 0.92 | 0.864 | 0.75 | 0.55 | 0.252 | 0.34 | 0.367 | 0.322 | 0.288 | – | – | 0.512 | 0.175 | 0.187 | 0.144
NCI-H1975 | 0.336 | 0.155 | 0.254 | 0.351 | 0.213 | 0.301 | 0.42 | 0.404 | 0.447 | 0.359 | 0.978 | 1.1 | 0.227 | 1.01 | 0.732 | 0.206

Cell Line | relative viability (CUDC-101 + Luminespib; first compound 0.01 µM) | relative viability (CUDC-101 + Luminespib; first compound 0.03162 µM) | relative viability (CUDC-101 + Luminespib; first compound 0.1 µM) | relative viability (CUDC-101 + Luminespib; first compound 0.3162 µM) | relative viability (CUDC-101 + Luminespib; first compound 1 µM) | relative viability ([1]; first compound 0.005 µM) | relative viability ([1]; first compound 0.01581 µM) | relative viability ([1]; first compound 0.05 µM) | relative viability ([1]; first compound 0.1581 µM) | relative viability ([1]; first compound 0.5 µM) | relative viability (NVP-TAE684 + Crizotinib; first compound 0.2 µM) | relative viability (NVP-TAE684 + Crizotinib; first compound 0.6325 µM) | relative viability (NVP-TAE684 + Crizotinib; first compound 2 µM) | relative viability (NVP-TAE684 + Tozasertib; first compound 0.2 µM) | relative viability (NVP-TAE684 + Tozasertib; first compound 0.6325 µM) | relative viability (NVP-TAE684 + Tozasertib; first compound 2 µM)
NCI-H1993 | 0.933 | 0.772 | 0.72 | 0.772 | 0.535 | 0.586 | 0.514 | 0.461 | 0.58 | 0.542 | – | 0.709 | 0.548 | 0.626 | 0.543 | 0.476
NCI-H2023 | 0.807 | 0.568 | 0.855 | 0.797 | 0.632 | 0.384 | 0.439 | 0.424 | 0.47 | 0.423 | 0.549 | 0.45 | 0.144 | 0.413 | 0.332 | 0.103
201T | 1.03 | 0.988 | 0.981 | 1.08 | 1.02 | 0.415 | 0.425 | 0.423 | 0.504 | 0.346 | 0.972 | 1.01 | 0.889 | 0.925 | 0.942 | 0.536
LK-2 | 0.248 | 0.196 | 0.19 | 0.179 | 0.178 | 0.392 | 0.289 | 0.396 | 0.58 | 0.33 | 0.228 | 0.223 | 0.203 | 0.154 | 0.191 | 0.179
SW 1573 | 0.238 | 0.252 | 0.516 | 0.187 | 0.164 | 0.251 | 0.395 | – | 0.484 | 0.382 | 0.971 | 0.805 | 0.673 | 0.216 | 0.16 | 0.139
NCI-H647 | 0.188 | 0.266 | 0.147 | 0.195 | 0.238 | 0.265 | 0.442 | 0.584 | 0.775 | 0.292 | 0.959 | 0.983 | 0.172 | 0.0998 | 0.288 | 0.115
NCI-H727 | 0.399 | 0.392 | 0.558 | 0.342 | 0.396 | – | 0.577 | 0.45 | 0.55 | 0.641 | 0.679 | 0.635 | 0.221 | 0.495 | 0.532 | 0.32
BEN | 0.534 | 0.402 | 0.467 | 0.302 | 0.37 | 0.243 | 0.28 | 0.286 | 0.304 | 0.46 | 0.713 | 0.837 | 0.678 | 0.513 | 0.492 | 0.392
NCI-H650 | 0.959 | 0.688 | 0.912 | 0.957 | 0.619 | 0.49 | – | 0.483 | 0.452 | 0.505 | 0.799 | 0.516 | 0.399 | 0.669 | 0.69 | 0.498
NCI-H441 | 0.359 | 0.381 | 0.304 | 0.414 | 0.371 | – | 0.993 | 1 | 0.913 | 0.79 | 0.661 | 0.659 | 0.315 | 0.608 | 0.554 | 0.266
NCI-H1915 | 0.908 | 0.787 | 0.774 | 0.788 | 0.551 | 0.312 | 0.37 | 0.356 | 0.398 | 0.353 | 0.922 | 0.921 | 0.858 | 0.487 | 0.415 | 0.492
LCLC-103H | 0.975 | 0.931 | 0.943 | 0.92 | 0.754 | 0.289 | 0.336 | 0.286 | 0.369 | 0.298 | 1.16 | 1.08 | 1 | 0.432 | 0.433 | 0.303
SK-LU-1 | 0.188 | 0.203 | 0.213 | 0.206 | 0.216 | 0.323 | 0.593 | 0.529 | 0.608 | 0.475 | 0.972 | 0.81 | 0.412 | 0.333 | 0.305 | 0.216
ABC-1 | 0.519 | 0.368 | 0.721 | 0.586 | 0.258 | 0.245 | 0.22 | 0.241 | 0.219 | 0.251 | 1.06 | 0.893 | 0.296 | 0.17 | 0.147 | 0.127
NCI-H1666 | 1.09 | 1.02 | 1.1 | 1 | 1.07 | 0.529 | 0.578 | 0.556 | 0.539 | 0.511 | 1.07 | 0.841 | 0.526 | 0.569 | 0.63 | 0.488
COR-L23 | 0.801 | 0.734 | 0.658 | 0.632 | 0.353 | 0.355 | 0.49 | 0.467 | 0.465 | 0.377 | 0.536 | 0.69 | 0.238 | 0.197 | 0.223 | 0.138
NCI-H460 | 0.0424 | 0.0301 | 0.0366 | 0.0315 | 0.0288 | 0.281 | 0.57 | 0.503 | 0.695 | 0.29 | 1.16 | 0.831 | 0.247 | 0.671 | 0.498 | 0.4
